Test results: patent US20260092057A1, “BCL-XL/BCL-2 DEGRADERS AND USES THEREOF” (Kymera Therapeutics, Inc., priority 2022, published 2026)

Experiments:
MOLT-4 cells = assay: CTG (CellTiter-Glo) cell viability assay, MOLT-4; format: cell-based; settings: Homo sapiens, MOLT-4, 72 h, MOLT-4, 3 day; read-out: CTG Cell Viability Assay - MOLT-4 3 day: Average external-IC50
Protocol: (§1) Compound-mediated viability effect on MOLT-4 and Caki-2 was quantitatively determined using the CellTiter-Glo® Luminescent Cell Viability Assay kit from Promega (Catalog number G7570) following manufacturer's recommended procedures. Briefly, MOLT-4 and Caki-2 cells were seeded into 384 well plates (Grenier Bio-One, Catalog number 781080) with a density of 10,000 cells per well. Compounds were then added to the assay plate with final top concentration of 10 µM and 1:3 dilution series with total of 9 doses. The final DMSO concentration is normalized to 0.2%. The assay plates were incubated at 37° C. for 3 days under 5% CO2. Then the assay plate was equilibrated at room temperature for 10 minutes. To determine cell viability, 30 uL CellTiter Glo reagent was added to each well and the assay plate was centrifuged at 1000 rpm for 30 second, incubated at room temperature for 10 min, and analyzed by detecting the luminescence using a multimode plate reader (EnVision 2105, PerkinElmer). The data was then analyzed by software Prism 7.0 from GraphPad and the dose response curves are fit using a three-parameter logistic equation to calculate IC50.
(§2) The letter codes for MOLT-4 IC50 include: A (<0.1 μM); B (0.1-1.0 μM); C (>1.0-3.0 μM); and D (>3.0 μM). The letter codes for Caki-2 IC50 include: A (<5 μM); B (5-10 μM); C (>10-30.0 μM); and D (>30.0 μM).

Caki-2 cells = assay: CTG (CellTiter-Glo) cell viability assay, Caki-2; format: cell-based; settings: Homo sapiens, CAKI-2, 72 h, Caki-2, 3-day; read-out: CTG Chempartner/PHA- Caki-2 3-day: Average external-IC50
Protocol: as §1, §2

Compound	IC50 (MOLT-4 cells)	IC50 (Caki-2 cells)
Cc1ncsc1-c1ccc([C@H](C)NC(=O)[C@@H]2C[C@@H](O)CN2C(=O)[C@@H](NC(=O)CCCCCC(=O)N2CCC(NCCCNc3ccc(S(=O)(=O)NC(=O)c4ccc(N5CCN(CC6=C(c7ccc(Cl)cc7)CC(C)(C)CC6)CC5)cc4Oc4cnc5[nH]ccc5c4)cc3S(=O)(=O)C(F)(F)F)CC2)C(C)(C)C)cc1 [I-87]	> 3000 nM	> 30000 nM
Cc1ncsc1-c1ccc([C@H](C)NC(=O)[C@@H]2C[C@@H](O)CN2C(=O)[C@@H](NC(=O)CCCC(=O)N2CCN(CC[C@H](CSc3ccccc3)Nc3ccc(S(=O)(=O)NC(=O)c4ccc(N5CCC([C@@H](O)c6ccccc6-c6ccc(Cl)cc6)CC5)cc4)cc3S(=O)(=O)C(F)(F)F)CC2)C(C)(C)C)cc1 [I-110]	100 to 1000 nM	> 30000 nM
Cc1ncsc1-c1ccc([C@H](C)NC(=O)[C@@H]2C[C@@H](O)CN2C(=O)[C@@H](NC(=O)CCCCCC(=O)N2CCN(CC[C@H](CSc3ccccc3)Nc3ccc(S(=O)(=O)NC(=O)c4ccc(N5CC6(CCC6)C5)cc4)cc3S(=O)(=O)C(F)(F)F)CC2)C(C)(C)C)cc1 [I-45]	> 3000 nM	> 30000 nM
Cc1ncsc1-c1ccc([C@H](C)NC(=O)[C@@H]2C[C@@H](O)CN2C(=O)[C@@H](NC(=O)CCCCCC(=O)N(C)CCCNc2ccc(S(=O)(=O)NC(=O)c3ccc(N4CCC([C@@H](O)c5ccccc5-c5ccc(Cl)cc5)CC4)cc3Oc3cnc4[nH]ccc4c3)cc2S(=O)(=O)C(F)(F)F)C(C)(C)C)cc1 [I-68]	> 3000 nM	> 30000 nM
Cc1ncsc1-c1ccc([C@H](C)NC(=O)[C@@H]2C[C@@H](O)CN2C(=O)[C@@H](NC(=O)CCCCCC(=O)N[C@@H]2CCN(CCCNc3ccc(S(=O)(=O)NC(=O)c4ccc(N5CCN(CC6=C(c7ccc(Cl)cc7)CC(C)(C)CC6)CC5)cc4Oc4cnc5[nH]ccc5c4)cc3S(=O)(=O)C(F)(F)F)C2)C(C)(C)C)cc1 [I-95]	> 3000 nM	> 30000 nM
Cc1ncsc1-c1ccc([C@H](C)NC(=O)[C@@H]2C[C@@H](O)CN2C(=O)[C@@H](NC(=O)CCCCCCCCC(=O)NCc2ccc(-c3ccc(Cl)cc3)c(CN3CCN(c4ccc(C(=O)NS(=O)(=O)c5ccc(N[C@H](CCN(C)C)CSc6ccccc6)c([N+](=O)[O-])c5)cc4)CC3)c2)C(C)(C)C)cc1 [I-20]	> 3000 nM	> 30000 nM
Cc1ncsc1-c1ccc([C@H](C)NC(=O)[C@@H]2C[C@@H](O)CN2C(=O)[C@@H](NC(=O)C2CCN(c3ccc(NC(=O)c4ccc(-c5ccc(Cl)cc5)c([C@@H](O)C5CCN(c6ccc(C(=O)NS(=O)(=O)c7ccc(N[C@H](CCN(C)CCO)CSc8ccccc8)c(S(=O)(=O)C(F)(F)F)c7)cc6)CC5)c4)cc3)CC2)C(C)(C)C)cc1 [I-123]	> 3000 nM	> 30000 nM
Cc1ncsc1-c1ccc([C@H](C)NC(=O)[C@@H]2C[C@@H](O)CN2C(=O)[C@@H](NC(=O)CCCCCC(=O)NCCCNc2ccc(S(=O)(=O)NC(=O)c3ccc(N4CCN(CC5=C(c6ccc(Cl)cc6)CC(C)(C)CC5)CC4)cc3Oc3cnc4[nH]ccc4c3)cc2S(=O)(=O)C(F)(F)F)C(C)(C)C)cc1 [I-76]	> 3000 nM	> 30000 nM
Cc1ncsc1-c1ccc([C@H](C)NC(=O)[C@@H]2C[C@@H](O)CN2C(=O)[C@@H](NC(=O)CCCCCC(=O)NCCCNc2ccc(S(=O)(=O)NC(=O)c3ccc(N4CCC([C@@H](O)c5ccccc5-c5ccc(Cl)cc5)CC4)cc3Oc3cnc4[nH]ccc4c3)cc2S(=O)(=O)C(F)(F)F)C(C)(C)C)cc1 [I-55]	> 3000 nM	> 30000 nM
Cc1ncsc1-c1ccc([C@H](C)NC(=O)[C@@H]2C[C@@H](O)CN2C(=O)[C@@H](NC(=O)CCCCCC(=O)N2CCN(CC[C@H](CSc3ccccc3)Nc3ccc(S(=O)(=O)NC(=O)c4ccc(N5CCN(C)CC5)cc4)cc3S(=O)(=O)C(F)(F)F)CC2)C(C)(C)C)cc1 [I-53]	> 3000 nM	> 30000 nM
Cc1ncsc1-c1ccc([C@H](C)NC(=O)[C@@H]2C[C@@H](N)CN2C(=O)[C@@H](NC(=O)C2CCN(CCCNc3ccc(S(=O)(=O)NC(=O)c4ccc(N5CCC([C@H](O)c6ccccc6-c6ccc(Cl)cc6)CC5)cc4Oc4cnc5[nH]ccc5c4)cc3S(=O)(=O)C(F)(F)F)CC2)C(C)(C)C)cc1 [I-92]	> 3000 nM	> 30000 nM
Cc1ncsc1-c1ccc([C@H](C)NC(=O)[C@@H]2C[C@@H](O)CN2C(=O)[C@@H](NC(=O)CCCCCC(=O)N2CCN(c3ccc(-c4ccc(Cl)cc4)c([C@@H](O)C4CCN(c5ccc(C(=O)NS(=O)(=O)c6ccc(N[C@H](CCN(C)CCO)CSc7ccccc7)c(S(=O)(=O)C(F)(F)F)c6)cc5)CC4)c3)CC2)C(C)(C)C)cc1 (single isomer, unassigned) [I-114]	> 3000 nM	> 30000 nM
Cc1ncsc1-c1ccc([C@H](C)NC(=O)[C@@H]2C[C@@H](O)CN2C(=O)[C@@H](NC(=O)CCCCCC(=O)N[C@H]2CCN(CCCNc3ccc(S(=O)(=O)NC(=O)c4ccc(N5CCN(CC6=C(c7ccc(Cl)cc7)CC(C)(C)CC6)CC5)cc4Oc4cnc5[nH]ccc5c4)cc3S(=O)(=O)C(F)(F)F)C2)C(C)(C)C)cc1 [I-96]	100 to 1000 nM	> 30000 nM
Cc1ncsc1-c1ccc([C@H](C)NC(=O)[C@@H]2C[C@@H](O)CN2C(=O)[C@@H](NC(=O)CCCCCC(=O)N2CCN(CC[C@H](CSc3ccccc3)Nc3ccc(S(=O)(=O)NC(=O)c4ccc(N5CC(N(C)C)C5)cc4)cc3S(=O)(=O)C(F)(F)F)CC2)C(C)(C)C)cc1 [I-49]	> 3000 nM	> 30000 nM
Cc1ncsc1-c1ccc([C@H](C)NC(=O)[C@@H]2C[C@@H](O)CN2C(=O)[C@@H](NC(=O)CCCCCC(=O)N2CCN(CC[C@H](CSc3ccccc3)Nc3ccc(S(=O)(=O)NC(=O)c4ccc(N5CC6CN(C)CC6C5)cc4)cc3S(=O)(=O)C(F)(F)F)CC2)C(C)(C)C)cc1 (stereo partly shown) [I-47]	> 3000 nM	> 30000 nM
Cc1ncsc1-c1ccc([C@H](C)NC(=O)[C@@H]2C[C@@H](O)CN2C(=O)[C@@H](NC(=O)CCC2CCN(CCCNc3ccc(S(=O)(=O)NC(=O)c4ccc(N5CCN([C@H](O)c6ccccc6-c6ccc(Cl)cc6)CC5)cc4Oc4cnc5[nH]ccc5c4)cc3S(=O)(=O)C(F)(F)F)CC2)C(C)(C)C)cc1 [I-129]	> 3000 nM	> 30000 nM
Cc1ncsc1-c1ccc([C@H](C)NC(=O)[C@@H]2C[C@@H](O)CN2C(=O)[C@@H](NC(=O)C2CCN(c3ccc(S(=O)(=O)NC(=O)c4ccc(-c5ccc(Cl)cc5)c(CN5CCN(c6ccc(C(=O)NS(=O)(=O)c7ccc(N[C@H](CCN(C)C)CSc8ccccc8)c([N+](=O)[O-])c7)cc6)CC5)c4)cc3)CC2)C(C)(C)C)cc1 [I-15]	> 3000 nM	> 30000 nM
Cc1ncsc1-c1ccc([C@H](C)NC(=O)[C@@H]2C[C@@H](O)CN2C(=O)[C@@H](NC(=O)CCCCC(=O)N2CCC3(CCN(Cc4ccc(-c5ccc(Cl)cc5)c(CN5CCN(c6ccc(C(=O)NS(=O)(=O)c7ccc(N[C@H](CCN(C)C)CSc8ccccc8)c([N+](=O)[O-])c7)cc6)CC5)c4)CC3)CC2)C(C)(C)C)cc1 [I-17]	> 3000 nM	> 30000 nM
Cc1ncsc1-c1ccc([C@H](C)NC(=O)[C@@H]2C[C@@H](O)CN2C(=O)[C@@H](NC(=O)CCCCCC(=O)N2CCN(CC[C@H](CSc3ccccc3)Nc3ccc(S(=O)(=O)NC(=O)c4ccc(N5CCC6(CN(C)C6)C5)cc4)cc3S(=O)(=O)C(F)(F)F)CC2)C(C)(C)C)cc1 [I-50]	> 3000 nM	> 30000 nM
Cc1ncsc1-c1ccc([C@H](C)NC(=O)[C@@H]2C[C@@H](O)CN2C(=O)[C@@H](NC(=O)CCCCCC(=O)NCC[C@H](CSc2ccccc2)Nc2ccc(S(=O)(=O)NC(=O)c3ccc(N4CCC([C@H](O)c5ccccc5-c5ccc(Cl)cc5)CC4)cc3)cc2S(=O)(=O)C(F)(F)F)C(C)(C)C)cc1 [I-70]	> 3000 nM	> 30000 nM
